Non-standard residues stand in square brackets, D forms with d. No end group written: not given here. bAib = not defined here; βAla = NCCC(=O)O
Tested on: Normal Kunming (KM) mice
Assay: multiple OGTT (mOGTT): hypoglycemic duration after a single administration
Assay type: in vivo
Conditions: single injection at the same dose (1.126 nmol), subcutaneous
From the text: • 1. Methods: Normal Kunming (KM) mice (purchased from Guangdong Animal Center) were used for oral glucose tolerance test (OGTT) to obtain the hypoglycemic activity and durability of drug. […] The blood glucose meter and blood glucose test paper were from Bayer […]. The average blood glucose of each group was used as an evaluation standard: When the average blood glucose of experimental group was higher than that of the NaCl control group for two times, the measurement stopped and the hypoglycemic period compared to the blank control group was the effective duration. • 2. Results • 2.1 single OGTTs: after a single administration, the mice were orally administered glucose once and measured the blood glucose from the tail blood at 0, 10, 20, 40, 60 and 120 min. […] The duration of each monomer group was about 1⁄2-1⁄4 of the duration of its corresponding dimer group. […] Therefore, the 2G3 peptide was selected for treating type II diabetes (T2D) in vivo and subsequent experiments.

Substance	Hypoglycemic duration [days]	Hypoglycemic duration (days)
2G4 series 27: disulfide-linked homodimer of monomer SEQ ID NO: 27 (HAEGTFTSDVCSYLEGQAAXEFIAWLVRGRG; not fully specified; disulfide-linked homodimer; Sequence is synthesized; (20)..(20) Xaa is 26Lys[N-e-(N-a-oleoyl-L-g-glutamyl)]; (31)..(31) N-terminal)	15	
2G4 series 30: disulfide-linked homodimer of monomer SEQ ID NO: 30 (HXEGTFTSDVCSYLEGQAAXEFIAWLVRGRG; not fully specified; disulfide-linked homodimer; Sequence is synthesized; (2)..(2) Xaa is bAib; (20)..(20) Xaa is 26Lys[N-e-(N-a-oleoyl-L-g-glutamyl)]; (31)..(31) N-terminal)	16	
2G4 series 31: disulfide-linked homodimer of monomer SEQ ID NO: 31 (HXEGTFTSDVCSYLEGQAAXEFIAWLVRGRG; not fully specified; disulfide-linked homodimer; Sequence is synthesized; (2)..(2) Xaa is bAla; (20)..(20) Xaa is 26Lys[N-e-(N-a-oleoyl-L-g-glutamyl)]; (31)..(31) N-terminal)	15	
2G4 series 32: disulfide-linked homodimer of monomer SEQ ID NO: 32 (HAEGTFTSDVSCYLEGQAAXEFIAWLVRGRG; not fully specified; disulfide-linked homodimer; Sequence is synthesized; (20)..(20) Xaa is 26Lys[N-e-(N-a-oleoyl-L-g-glutamyl)]; (31)..(31) C-terminal)	13	
2G4 series 33: disulfide-linked homodimer of monomer SEQ ID NO: 33 (HAEGTFTSDVSCYLEGQAAXEFIAWLVRGRG; not fully specified; disulfide-linked homodimer; Sequence is synthesized; (20)..(20) Xaa is 26Lys[N-e-(N-a-oleoyl-L-g-glutamyl)]; (31)..(31) N-terminal)	16	
2G4 series 34: disulfide-linked homodimer of monomer SEQ ID NO: 34 (HAEGTFTSDVSCYLEGQAAXEFIAWLVRGRG; not fully specified; disulfide-linked homodimer; Sequence is synthesized; (20)..(20) Xaa is 26Lys[N-e-(N-a-palmitoyl-L-g-glutamyl)]; (31)..(31) C-terminal)	13	
2G4 series 35: disulfide-linked homodimer of monomer SEQ ID NO: 35 (HAEGTFTSDVSCYLEGQAAXEFIAWLVRGRG; not fully specified; disulfide-linked homodimer; Sequence is synthesized; (20)..(20) Xaa is 26Lys[N-e-(N-a-palmitoyl-L-g-glutamyl)]; (31)..(31) N-terminal)	15	
2G4 series 38: disulfide-linked homodimer of monomer SEQ ID NO: 38 (HXEGTFTSDVSCYLEGQAAXEFIAWLVRGRG; disulfide-linked homodimer; Sequence is synthesized; (2)..(2) Xaa is bAib; (20)..(20) Xaa is 26Lys[N-e-(N-a-oleoyl-L-g-glutamyl)]; (31)..(31) N-terminal)	17	
2G4 series 39: disulfide-linked homodimer of monomer SEQ ID NO: 39 (HXEGTFTSDVSCYLEGQAAXEFIAWLVRGRG; disulfide-linked homodimer; Sequence is synthesized; (2)..(2) Xaa is bAla; (20)..(20) Xaa is 26Lys[N-e-(N-a-oleoyl-L-g-glutamyl)]; (31)..(31) N-terminal)	16	
2G5 series 40: disulfide-linked homodimer of monomer SEQ ID NO: 40 (HAEGTFTSDVSCYLEGQAAXEFIAWLVXGRG; disulfide-linked homodimer; Sequence is synthesized; (20)..(20) Xaa is 26Lys[N-e-(N-a-palmitoyl-L-g-glutamyl)]; (28)..(28) Xaa is 26Lys[N-e-(N-a-palmitoyl-L-g-glutamyl)]; (31)..(31) C-terminal)		3 (2G5 peptide) days
2G5 series 41: disulfide-linked homodimer of monomer SEQ ID NO: 41 (HAEGTFTSDVSCYLEGQAAXEFIAWLVXGRG; disulfide-linked homodimer; Sequence is synthesized; (20)..(20) Xaa is 26Lys[N-e-(N-a-palmitoyl-L-g-glutamyl)]; (28)..(28) Xaa is 26Lys[N-e-(N-a-palmitoyl-L-g-glutamyl)]; (31)..(31) N-terminal)	5	
2G5 series 43: disulfide-linked homodimer of monomer SEQ ID NO: 43 (HXEGTFTSDVSCYLEGQAAXEFIAWLVXGRG; disulfide-linked homodimer; Sequence is synthesized; (2)..(2) Xaa is bAib; (20)..(20) Xaa is 26Lys[N-e-(N-a-palmitoyl-L-g-glutamyl)]; (28)..(28) Xaa is 26Lys[N-e-(N-a-palmitoyl-L-g-glutamyl)]; (31)..(31) N-terminal)	7	
2G5 series 44: disulfide-linked homodimer of monomer SEQ ID NO: 44 (HXEGTFTSDVSCYLEGQAAXEFIAWLVXGRG; disulfide-linked homodimer; Sequence is synthesized; (2)..(2) Xaa is bAla; (20)..(20) Xaa is 26Lys[N-e-(N-a-palmitoyl-L-g-glutamyl)]; (28)..(28) Xaa is 26Lys[N-e-(N-a-palmitoyl-L-g-glutamyl)]; (31)..(31) N-terminal)	6	
2G6 series 49: disulfide-linked homodimer of monomer SEQ ID NO: 49 (HXEGTFTSDVSCYLEGQAAXEFIAWLVRGRG; disulfide-linked homodimer; Sequence is synthesized; (2)..(2) Xaa is bAib; (20)..(20) Xaa is 26Lys[N-e-(N-a-oleoyl-L-g-glutamyl)]; (31)..(31) N-terminal)	17	
2G6 series 50: disulfide-linked homodimer of monomer SEQ ID NO: 50 (HXEGTFTSDVSCYLEGQAAXEFIAWLVRGRG; disulfide-linked homodimer; Sequence is synthesized; (2)..(2) Xaa is bAla; (20)..(20) Xaa is 26Lys[N-e-(N-a-oleoyl-L-g-glutamyl)]; (31)..(31) N-terminal)	16	
2G7 series 54: disulfide-linked homodimer of monomer SEQ ID NO: 54 (H[bAib]EGTFTSDVSCYLEGQAAKEFIAWLVR[bAib]R-NH2; reading uncertain; also: disulfide-linked homodimer, disulfide at 12, other end not in the chain, printed as His-βAib-Glu-Gly-Thr-Phe-Thr-Ser-Asp-Val-Ser-Cys-Tyr-Leu-Glu-Gly-Gln-Ala-Ala-Lys-Glu-Phe-Ile-Ala-Trp-Leu-Val-Arg-βAib-Arg-NH2)	5	
2G7 series 55: disulfide-linked homodimer of monomer SEQ ID NO: 55 (H[βAla]EGTFTSDVSCYLEGQAAKEFIAWLVR[βAla]R-NH2; also: disulfide-linked homodimer, disulfide at 12, other end not in the chain)	4	
2G8 series 56: disulfide-linked homodimer of monomer SEQ ID NO: 56 (HAEGTFTCDVSSYLEGQAAXEFIAWLVRGRG; disulfide-linked homodimer; Sequence is synthesized; (20)..(20) Xaa is 26Lys[N-e-(N-a-palmitoyl-L-g-glutamyl)]; (31)..(31) C-terminal)	2	
2G8 series 57: disulfide-linked homodimer of monomer SEQ ID NO: 57 (HAEGTFTCDVSSYLEGQAAXEFIAWLVRGRG; disulfide-linked homodimer; Sequence is synthesized; (20)..(20) Xaa is 26Lys[N-e-(N-a-palmitoyl-L-g-glutamyl)]; (31)..(31) N-terminal)	5	
2G8 series 58: disulfide-linked homodimer of monomer SEQ ID NO: 58 (HAEGTFTCDVSSYLEGQAAXEFIAWLVRGRG; disulfide-linked homodimer; Sequence is synthesized; (20)..(20) Xaa is 26Lys[N-e-(N-a-oleoyl-L-g-glutamyl)]; (31)..(31) C-terminal)	3	
2G8 series 59: disulfide-linked homodimer of monomer SEQ ID NO: 59 (HAEGTFTCDVSSYLEGQAAXEFIAWLVRGRG; disulfide-linked homodimer; Sequence is synthesized; (20)..(20) Xaa is 26Lys[N-e-(N-a-oleoyl-L-g-glutamyl)]; (31)..(31) N-terminal)	5	
2G8 series 66: disulfide-linked homodimer of monomer SEQ ID NO: 66 (HXEGTFTCDVSSYLEGQAAXEFIAWLVRGRG; disulfide-linked homodimer; Sequence is synthesized; (2)..(2) Xaa is bAib; (20)..(20) Xaa is 26Lys[N-e-(N-a-oleoyl-L-g-glutamyl)]; (31)..(31) N-terminal)	8	

— patent US20240150423A1, “GLP-1 ANALOGUE-MODIFIED DIMERS WITH DIFFERENT CONFIGURATIONS, PREPARATION METHOD THEREOF, AND APPLICATION THEREOF IN TREATMENT OF TYPE II DIABETES” (Nanjing Finepeptide Biopharmaceutical Co.,Ltd, priority 2019, published 2024)
